What was measured:
[1] = test system: gingival carcinoma (Ca9-22) cells; experiment: Cytotoxicity assay (MTT), Ca9-22; assay type: cell-based, human
Protocol: (§1) The cytotoxicity of the compounds 4a - 4j were assayed towards human tumor cell lines [gingival carcinoma (Ca9–22), oral squamous cell carcinoma (HSC-2)] and human normal oral cells [gingival fibroblasts (HGF), and periodontal ligament fibroblasts (HPLF)] as described [42, 54 – 56]. In brief, all cells were cultured in Dulbecco’s modified eagle’s medium (DMEM) supplemented with 10% fetal bovine serum (FBS). The following concentrations of the compounds in dimethylsulfoxide (DMSO) were added to the medium and incubated at 37 ° C for 48 h: 4a - 4j ([…]), melphalan (3.12, 6.25, 12.5, 25. 50, 100, 200 and […]) and 5-FU ([…]). The media that contained the same concentration of DMSO ([…], 0.03125, 0.0625, 0.125, 0.25, 0.5 or 1%) were used as controls since DMSO above 0.25% is cytotoxic. The viable cell numbers were determined by the 3-(4,5-dimethylthiazol-2-yl)-2,5-diphenyltetrazolium bromide (MTT) assay. The CC50 values were determined from dose-response curves.
(§2) Cytotoxicity’s of the compounds 4a - 4j were evaluated towards Ca9–22, HSC-2, HSC-3, and HSC-4 human oral squamous cell carcinoma cell lines as tumor cell lines and HGF, HPLF, and HPC human normal oral cells as nontumor cells (Table 1) according to the procedure in the literature [42, 54 – 56]. 5-Fluorouracil (5-FU) was used as a reference anticancer drug.

[2] = test system: oral squamous cell carcinoma (HSC-2) cells; experiment: Cytotoxicity assay (MTT), HSC-2; assay type: cell-based, human
Protocol: as §1, §2

[3] = test system: HSC-3 oral squamous cell carcinoma cells; experiment: Cytotoxicity assay (MTT), HSC-3; assay type: cell-based; conditions: Homo sapiens, tumor cell line, 48 h
Protocol: as §1, §2

[4] = test system: HSC-4 oral squamous cell carcinoma cells; experiment: Cytotoxicity assay (MTT), HSC-4; assay type: cell-based; conditions: Homo sapiens, tumor cell line, 48 h
Protocol: as §1, §2

[5] = Cytotoxicity assay (MTT), HGF normal cells; assay type: cell-based; conditions: human, HGF gingival fibroblasts (normal oral cells), non-tumor cells
Protocol: as §1, §2

[6] = Cytotoxicity assay (MTT), HPLF normal cells; assay type: cell-based; conditions: human, HPLF periodontal ligament fibroblasts (normal oral cells), non-tumor cells
Protocol: as §1, §2

[7] = Cytotoxicity assay (MTT), HPC normal cells; assay type: cell-based; conditions: human, HPC normal oral cells, non-tumor cells
Protocol: as §1, §2

[8] = test system: human oral squamous cell carcinoma cell lines (Ca9-22, HSC-2, HSC-3, HSC-4); experiment: Cytotoxicity assay, all tumor cell lines (mean, TS1, PSE1); assay type: cell-based; conditions: mean of Ca9-22, HSC-2, HSC-3, HSC-4, read-out: Tumor cell lines CC50 mean (B)
Protocol: as §1, §2
The tumor selectivity (TS1 and TS2) of each compound was calculated as described in previously reported literature procedures and these figures are presented in Table 1. Based on the TS1 values, 4f and 4g which have 2,5 and 2,4-dimethoxy substituents had the highest TS1 values in a series with 22.4 and 22.2, respectively. On the other hand, the 3,4,5-trimethoxy substituted compound 4i (TS1: 19.6) had the […] TS1 value. […] As expected, they were in accordance with the literature findings [16 – 18]. The second calculation (TS2) considered the differences of sensitivity between the malignant (Ca9–22) and non-malignant (HGF) cells derived from the same tissue (gingiva). According to TS2 values obtained, 4i (3,4,5-trimethoxy) had the highest TS2 value of 43.
The desired properties for a lead compound are being both markedly cytotoxic and selectively toxic for tumors. PSE1 reflects general cytotoxicity and selectivity potency of the compound towards all cells used, whereas PSE2 seems more specified since it was considered for the same origin cells. When the compounds tested towards OSCC lines were considered in terms of PSE2 values of the compounds. The best poly-methoxylated compounds were 4i (with 3,4,5-trimethoxy, PSE2 = 461.5) ˃ 4f (with 2,5-dimethoxy, PSE2 = 425.1) ˃ 4g (with 2,4-dimethoxy, PSE2 = 405.4) while the best mono-methoxylated derivative was 4b (with 4-methoxy, PSE2 = 205).

[9] = Cytotoxicity assay, all non-tumor cells (mean); assay type: cell-based; conditions: human, normal oral cells HGF, HPLF and HPC (mean of the three), read-out: Non-tumor cell lines CC50 mean (D)
Protocol: as §1, §2

[10] = target: hCA I (Homo sapiens, UniProt P00915); experiment: Carbonic anhydrase enzyme assay (esterase activity), hCA I; assay type: biochemical
Text: (§3) Human CA isoforms (hCAI and hCAII) were purified by the sepharose - 4B – L - tyrosine sulfanilamide affinity segregation method as reported. […] Inhibitory effects of the compounds were investigated by measuring the esterase activity according to Verpoorte et al. as described in previous studies [61 – 63].
(§4) Vmax, maximal velocity; VImax, maximal velocity of inhibitor; I, inhibitor; Ki, the inhibitor constant.

[11] = target: hCA II (Homo sapiens, UniProt P00918); experiment: Carbonic anhydrase enzyme assay (esterase activity), hCA II; assay type: biochemical
Text: as §3, §4

[12] = esterase activity, p-nitrophenyl acetate

Sequence of hCA I (P00915 whole entry, canonical isoform): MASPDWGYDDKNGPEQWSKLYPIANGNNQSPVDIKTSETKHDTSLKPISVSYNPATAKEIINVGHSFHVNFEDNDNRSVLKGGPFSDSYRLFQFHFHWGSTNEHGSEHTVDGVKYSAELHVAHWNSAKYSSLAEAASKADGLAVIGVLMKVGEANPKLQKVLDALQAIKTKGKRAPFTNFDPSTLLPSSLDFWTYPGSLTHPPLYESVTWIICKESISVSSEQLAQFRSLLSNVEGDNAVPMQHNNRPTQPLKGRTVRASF

Ki ([10]; Lineweaver-Burk plot): 27.8 ± 10.1 µM
IC50 [10, 12]: 14 µM
Ki ([11]; Lineweaver-Burk plot): 12.3 ± 2.8 µM
IC50 [11, 12]: 16.3 µM
melting point: 144 to 146 °C
Compound: COc1ccc(OC)c(C2=NN(c3ccc(S(N)(=O)=O)cc3)C(c3ccc4c(c3)OCO4)C2)c1 (centres unmarked) [4f, 4-[5-(1,3-Benzodioxol-5-yl)-3-(2,5-dimethoxyphenyl)-4,5-dihydro-1H-pyrazol-1-yl]benzenesulphonamide]
CC50 ([1]; Homo sapiens, Ca9-22, tumor cell line, 48 h, MTT): 9.7 µM
PSE2 times more potent than 5-FU ([1]; PSE2 relative to reference drug 5-FU): 2.1
times of potency compared to 5-FU, Ca9-22 ([1]; cytotoxicity relative to 5-FU): 2.3
CC50 ([2]; Homo sapiens, HSC-2, tumor cell line, 48 h, MTT): 15.7 µM
times of potency compared to 5-FU, HSC-2 ([2]; cytotoxicity relative to 5-FU): 16.6
CC50 [3]: 11.5 µM
CC50 [4]: 12 µM
CC50 at 48 h [5]: 400 µM
CC50 at 48 h [6]: 276 µM
CC50 at 48 h [7]: 147 µM
CC50 [8]: 12.2 µM
CC50 at 48 h [9]: 274 µM
